Data published in patent publication US11878975B2, “Substituted indole compounds useful as TLR inhibitors” (BRISTOL-MYERS SQUIBB COMPANY, priority 2017, dated 2024).
pIC50: −log10 of the molar value.

Key:
Assay type in all cases: cell-based
human TLR7 = target: T1, human TLR7 (Homo sapiens, UniProt Q9NYK1); assay: TLR7 inhibition reporter assay (HEK-Blue cells, SEAP reporter, gardiquimod stimulation); conditions: HEK-Blue cells overexpressing human TLR7, SEAP reporter, gardiquimod 7.5 μM
T1 construct: host or cells: HEK-Blue cells
T1 sequence (Q9NYK1 27-1049): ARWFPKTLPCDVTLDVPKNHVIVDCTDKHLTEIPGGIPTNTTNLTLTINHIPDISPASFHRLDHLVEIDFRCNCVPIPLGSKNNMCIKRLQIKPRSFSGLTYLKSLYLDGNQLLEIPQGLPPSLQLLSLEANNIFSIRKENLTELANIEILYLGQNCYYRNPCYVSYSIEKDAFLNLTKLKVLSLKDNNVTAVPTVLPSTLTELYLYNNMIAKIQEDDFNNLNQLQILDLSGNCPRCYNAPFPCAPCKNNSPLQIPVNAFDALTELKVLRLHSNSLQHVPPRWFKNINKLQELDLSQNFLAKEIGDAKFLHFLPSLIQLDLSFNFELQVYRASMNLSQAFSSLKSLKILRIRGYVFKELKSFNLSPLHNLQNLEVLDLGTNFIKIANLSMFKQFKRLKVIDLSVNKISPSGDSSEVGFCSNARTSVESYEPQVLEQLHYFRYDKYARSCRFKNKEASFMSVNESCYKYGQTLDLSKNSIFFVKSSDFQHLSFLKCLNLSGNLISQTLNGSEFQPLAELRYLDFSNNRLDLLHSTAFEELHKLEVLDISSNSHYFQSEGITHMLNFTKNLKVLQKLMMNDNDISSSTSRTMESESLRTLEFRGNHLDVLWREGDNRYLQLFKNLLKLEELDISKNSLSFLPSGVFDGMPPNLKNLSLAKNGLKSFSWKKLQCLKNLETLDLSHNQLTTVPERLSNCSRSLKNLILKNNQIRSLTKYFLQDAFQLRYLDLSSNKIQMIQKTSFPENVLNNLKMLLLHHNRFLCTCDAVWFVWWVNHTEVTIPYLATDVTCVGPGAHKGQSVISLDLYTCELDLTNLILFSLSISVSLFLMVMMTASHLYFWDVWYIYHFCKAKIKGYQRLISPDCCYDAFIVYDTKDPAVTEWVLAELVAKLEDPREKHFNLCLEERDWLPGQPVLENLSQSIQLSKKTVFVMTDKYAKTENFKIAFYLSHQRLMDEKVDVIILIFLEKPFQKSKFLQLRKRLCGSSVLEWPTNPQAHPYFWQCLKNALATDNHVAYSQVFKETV
Procedure, shortened: (§1)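 SEAP readout after 22 h agonist exposure at 37 °C; final agonist levels were 7.5 μM gardiquimod (TLR7), 15.9 μM R848 (TLR8) and 5 nM ODN2006 (TLR9). Inhibitors, spanning 0.05 nM to 50 μM final, were applied 30 min beforehand.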

human TLR9 = target: T2, human TLR9 (Homo sapiens, UniProt Q9NR96); assay: TLR9 inhibition reporter assay (HEK-Blue cells, SEAP reporter, ODN2006 stimulation); conditions: HEK-Blue cells overexpressing human TLR9, SEAP reporter, ODN2006 5 nM
T2 construct: host or cells: HEK-Blue cells
T2 sequence (Q9NR96 26-1032): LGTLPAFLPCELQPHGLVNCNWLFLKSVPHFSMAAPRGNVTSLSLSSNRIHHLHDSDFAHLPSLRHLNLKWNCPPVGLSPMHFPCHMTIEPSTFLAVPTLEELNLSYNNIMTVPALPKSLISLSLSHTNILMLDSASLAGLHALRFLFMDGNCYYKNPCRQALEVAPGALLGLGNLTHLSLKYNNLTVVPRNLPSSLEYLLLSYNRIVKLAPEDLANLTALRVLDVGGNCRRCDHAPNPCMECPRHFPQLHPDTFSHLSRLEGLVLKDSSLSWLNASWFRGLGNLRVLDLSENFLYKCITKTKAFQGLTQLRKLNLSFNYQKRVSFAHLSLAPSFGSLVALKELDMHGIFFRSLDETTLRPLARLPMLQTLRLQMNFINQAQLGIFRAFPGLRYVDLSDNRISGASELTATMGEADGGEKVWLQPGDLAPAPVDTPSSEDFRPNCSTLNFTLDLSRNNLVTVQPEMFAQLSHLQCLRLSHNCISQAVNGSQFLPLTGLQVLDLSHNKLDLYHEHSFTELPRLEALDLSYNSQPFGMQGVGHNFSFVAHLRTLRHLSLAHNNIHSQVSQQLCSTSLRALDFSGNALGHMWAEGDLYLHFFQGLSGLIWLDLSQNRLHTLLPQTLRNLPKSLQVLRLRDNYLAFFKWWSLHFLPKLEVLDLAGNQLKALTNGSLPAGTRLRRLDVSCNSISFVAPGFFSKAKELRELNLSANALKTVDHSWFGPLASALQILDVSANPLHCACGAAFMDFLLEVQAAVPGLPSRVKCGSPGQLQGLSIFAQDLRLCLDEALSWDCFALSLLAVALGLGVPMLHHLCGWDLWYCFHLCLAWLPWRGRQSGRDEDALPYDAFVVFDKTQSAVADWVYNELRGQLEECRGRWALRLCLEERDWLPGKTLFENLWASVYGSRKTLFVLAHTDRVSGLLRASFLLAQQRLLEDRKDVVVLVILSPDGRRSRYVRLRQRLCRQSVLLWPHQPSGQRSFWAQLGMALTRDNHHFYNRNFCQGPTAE
Procedure, shortened: as §1

human TLR8 = target: T3, human TLR8 (Homo sapiens, UniProt Q9NR97); assay: TLR8 inhibition reporter assay (HEK-Blue cells, SEAP reporter, R848 stimulation); conditions: HEK-Blue cells overexpressing human TLR8, SEAP reporter, R848 15.9 μM
T3 construct: host or cells: HEK-Blue cells
T3 sequence (Q9NR97 27-1041): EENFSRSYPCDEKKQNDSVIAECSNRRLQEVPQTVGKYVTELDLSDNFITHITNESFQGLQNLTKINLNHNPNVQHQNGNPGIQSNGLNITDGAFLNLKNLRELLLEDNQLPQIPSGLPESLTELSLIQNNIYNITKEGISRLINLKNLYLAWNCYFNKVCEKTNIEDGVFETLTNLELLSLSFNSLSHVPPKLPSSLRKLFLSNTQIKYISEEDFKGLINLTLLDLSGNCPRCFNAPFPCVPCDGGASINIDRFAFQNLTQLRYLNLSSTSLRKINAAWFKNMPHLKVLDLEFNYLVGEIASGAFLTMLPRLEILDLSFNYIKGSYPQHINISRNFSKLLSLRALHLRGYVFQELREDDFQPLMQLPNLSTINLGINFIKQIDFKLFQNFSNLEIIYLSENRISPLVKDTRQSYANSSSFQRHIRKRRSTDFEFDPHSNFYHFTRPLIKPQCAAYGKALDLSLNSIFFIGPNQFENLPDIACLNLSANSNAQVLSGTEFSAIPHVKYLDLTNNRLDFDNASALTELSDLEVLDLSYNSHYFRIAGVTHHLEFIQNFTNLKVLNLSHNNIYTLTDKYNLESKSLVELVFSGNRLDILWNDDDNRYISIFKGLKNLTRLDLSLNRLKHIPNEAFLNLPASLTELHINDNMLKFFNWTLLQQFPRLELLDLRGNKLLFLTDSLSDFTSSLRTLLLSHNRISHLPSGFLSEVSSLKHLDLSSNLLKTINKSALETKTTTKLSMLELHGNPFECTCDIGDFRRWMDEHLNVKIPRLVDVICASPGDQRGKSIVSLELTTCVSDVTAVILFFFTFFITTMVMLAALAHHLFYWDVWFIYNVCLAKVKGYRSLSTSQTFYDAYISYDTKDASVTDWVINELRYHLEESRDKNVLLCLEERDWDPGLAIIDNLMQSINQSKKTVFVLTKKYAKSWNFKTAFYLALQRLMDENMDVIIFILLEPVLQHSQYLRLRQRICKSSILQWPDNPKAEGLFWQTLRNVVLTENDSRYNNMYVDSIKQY
Procedure, shortened: as §1

Compound	pIC50 (human TLR7)	pIC50 (human TLR9)	pIC50 (human TLR8)
CNC(=O)CN1CCOC(c2ccc3[nH]c(-c4cc(C)nc(C)c4)c(C(C)C)c3c2)C1 (stereo not drawn) [Example 325]	7.54	4.43	7.68
Cc1cc(-c2[nH]c3ccc(C4CN(CC(=O)N(C)C)CCO4)cc3c2C(C)C)cc(C)n1 (stereo not drawn) [Example 326]	7.12	4.71	7.55
Cc1cc(-c2[nH]c3ccc(C4CN(CC(N)=O)CCO4)cc3c2C(C)C)cc(C)n1 (stereo not drawn) [Example 327]	7.27	< 4.30	7.32
Cc1cc(-c2[nH]c3ccc(C4CN(C(=O)CN(C)C)CCO4)cc3c2C(C)C)cn2ncnc12 (stereo not drawn) [Example 328, 2-(dimethylamino)-1-(2-(3-isopropyl-2-(8-methyl-[1,2,4]triazolo[1,5-a]pyridin-6-yl)-1H-indol-5-yl)morpholino)ethanone]	9.07	5.26	8.09
Cc1c(-c2[nH]c3ccc(C4CN(C(=O)CN(C)C)CCO4)cc3c2C(C)C)cn2ncnc2c1C (stereo not drawn) [Example 329]	9.00	5.38	8.47
Cc1c(-c2[nH]c3ccc(C4CN(C(=O)CN(C)C)CCO4)cc3c2C(C)C)cn2ncnc2c1C (stereo not drawn) [Example 330]	9.00	5.48	8.47
Cc1cc(-c2[nH]c3ccc(C4CN(C(=O)CN(C)C)CCO4)cc3c2C(C)C)cn2ncnc12 (stereo not drawn) [Example 331]	9.00	5.44	8.34
COc1cc(-c2[nH]c3ccc(C4CN(C(=O)CN(C)C)CCO4)cc3c2C(C)C)cn2ncnc12 (stereo not drawn) [Example 332]	9.19	5.55	8.21
COc1cc(-c2[nH]c3ccc(C4CN(C(=O)CN(C)C)CCO4)cc3c2C(C)C)cn2ncnc12 (stereo not drawn) [Example 334]	9.08	5.56	8.51
Cc1cc(-c2[nH]c3ccc(C4CN(C(=O)CN(C)C)CCO4)cc3c2C(C)C)cc(C)n1 (stereo not drawn) [Example 335]	8.30	6.14	7.92
Cc1cc(-c2[nH]c3ccc(C4CN(C(=O)CN(C)C)CCO4)cc3c2C(C)C)cc(C)n1 (stereo not drawn) [Example 336]	8.00	6.28	8.00
CNCC(=O)N1CCOC(c2ccc3[nH]c(-c4cc(C)c5ncnn5c4)c(C(C)C)c3c2)C1 (stereo not drawn) [Example 337, 1-(2-(3-isopropyl-2-(8-methyl-[1,2,4]triazolo[1,5-a]pyridin-6-yl)-1H-indol-5-yl)morpholino)-2-(methylamino)ethanone]	9.00	5.48	8.15
CNCC(=O)N1CCOC(c2ccc3[nH]c(-c4cc(C)c5ncnn5c4)c(C(C)C)c3c2)C1 (stereo not drawn) [Example 338]	9.11	5.69	8.15
CNCC(=O)N1CCOC(c2ccc3[nH]c(-c4cc(OC)c5ncnn5c4)c(C(C)C)c3c2)C1 (stereo not drawn) [Example 339]	9.00	6.06	8.22
CNCC(=O)N1CCOC(c2ccc3[nH]c(-c4cn5ncnc5c(C)c4C)c(C(C)C)c3c2)C1 (stereo not drawn) [Example 340]	8.70	5.32	8.29
CNCC(=O)N1CCOC(c2ccc3[nH]c(-c4cn5ncnc5c(C)c4C)c(C(C)C)c3c2)C1 (stereo not drawn) [Example 341]	8.70	5.22	8.30
CNCC(=O)N1CCOC(c2ccc3[nH]c(-c4cc(OC)c5ncnn5c4)c(C(C)C)c3c2)C1 (stereo not drawn) [Example 342]	8.52	5.76	7.80
Cc1cc(-c2[nH]c3ccc(C4CN(CCS(C)(=O)=O)CCO4)cc3c2C(C)C)cn2ncnc12 (stereo not drawn) [Example 343, 2-(3-isopropyl-2-(8-methyl-[1,2,4]triazolo[1,5-a]pyridin-6-yl)-1H-indol-5-yl)-4-(2-(methylsulfonyl)ethyl)morpholine]	8.00	< 4.30	7.47
Cc1cc(-c2[nH]c3ccc(C4CN(CCS(C)(=O)=O)CCO4)cc3c2C(C)C)cn2ncnc12 (stereo not drawn) [Example 344]	8.15	< 4.30	7.85
COCCN1CCOC(c2ccc3[nH]c(-c4cc(OC)c5ncnn5c4)c(C(C)C)c3c2)C1 (stereo not drawn) [Example 345]	8.22	5.06	7.92
Cc1c(-c2[nH]c3ccc(C4CN(CCS(C)(=O)=O)CCO4)cc3c2C(C)C)cn2ncnc2c1C (stereo not drawn) [Example 346]	7.60	< 4.30	7.62
Cc1c(-c2[nH]c3ccc(C4CN(CCS(C)(=O)=O)CCO4)cc3c2C(C)C)cn2ncnc2c1C (stereo not drawn) [Example 347]	7.66	< 4.30	7.85
Cc1cc(-c2[nH]c3ccc(C4CN(CCS(C)(=O)=O)CCO4)cc3c2C(C)C)cc(C)n1 (stereo not drawn) [Example 351]	7.55	4.32	7.51
COCCN1CCOC(c2ccc3[nH]c(-c4cc(C)nc(C)c4)c(C(C)C)c3c2)C1 (stereo not drawn) [Example 352]	7.38	5.43	7.82
